Data: US11850243B2, “Dihydropyridine compositions and methods for treating neurological disorders” (Cavalon Therapeutics, Inc., priority 2021, dated 2023)

Legend:
Parkinson's disease = experiment: STEADY-PD III post-hoc analysis: isradipine exposure versus need for antiparkinson therapy and levodopa equivalent dose; format: in vivo, human
[1] = test system: dopaminergic neurons in the striatum and substantia nigra; conditions: 6-hydroxydopamine mouse model, cited from earlier work
SNc DA neurons = conditions: chronic treatment in vivo, cited from earlier work
[2] = population pharmacokinetic modeling of plasma isradipine in STEADY-PD III by tertile groups; conditions: IR 5 mg twice daily; for CL/F: steady state; for Cave,ss: based on AUC24
Cav1.3 = Cav1.3 (Homo sapiens, UniProt Q01668); conditions: in vitro; read-out: IC50 for inhibition of calcium currents through Cav1.3 (converted); cited from earlier work
Sequence of Cav1.3 (Q01668 whole entry): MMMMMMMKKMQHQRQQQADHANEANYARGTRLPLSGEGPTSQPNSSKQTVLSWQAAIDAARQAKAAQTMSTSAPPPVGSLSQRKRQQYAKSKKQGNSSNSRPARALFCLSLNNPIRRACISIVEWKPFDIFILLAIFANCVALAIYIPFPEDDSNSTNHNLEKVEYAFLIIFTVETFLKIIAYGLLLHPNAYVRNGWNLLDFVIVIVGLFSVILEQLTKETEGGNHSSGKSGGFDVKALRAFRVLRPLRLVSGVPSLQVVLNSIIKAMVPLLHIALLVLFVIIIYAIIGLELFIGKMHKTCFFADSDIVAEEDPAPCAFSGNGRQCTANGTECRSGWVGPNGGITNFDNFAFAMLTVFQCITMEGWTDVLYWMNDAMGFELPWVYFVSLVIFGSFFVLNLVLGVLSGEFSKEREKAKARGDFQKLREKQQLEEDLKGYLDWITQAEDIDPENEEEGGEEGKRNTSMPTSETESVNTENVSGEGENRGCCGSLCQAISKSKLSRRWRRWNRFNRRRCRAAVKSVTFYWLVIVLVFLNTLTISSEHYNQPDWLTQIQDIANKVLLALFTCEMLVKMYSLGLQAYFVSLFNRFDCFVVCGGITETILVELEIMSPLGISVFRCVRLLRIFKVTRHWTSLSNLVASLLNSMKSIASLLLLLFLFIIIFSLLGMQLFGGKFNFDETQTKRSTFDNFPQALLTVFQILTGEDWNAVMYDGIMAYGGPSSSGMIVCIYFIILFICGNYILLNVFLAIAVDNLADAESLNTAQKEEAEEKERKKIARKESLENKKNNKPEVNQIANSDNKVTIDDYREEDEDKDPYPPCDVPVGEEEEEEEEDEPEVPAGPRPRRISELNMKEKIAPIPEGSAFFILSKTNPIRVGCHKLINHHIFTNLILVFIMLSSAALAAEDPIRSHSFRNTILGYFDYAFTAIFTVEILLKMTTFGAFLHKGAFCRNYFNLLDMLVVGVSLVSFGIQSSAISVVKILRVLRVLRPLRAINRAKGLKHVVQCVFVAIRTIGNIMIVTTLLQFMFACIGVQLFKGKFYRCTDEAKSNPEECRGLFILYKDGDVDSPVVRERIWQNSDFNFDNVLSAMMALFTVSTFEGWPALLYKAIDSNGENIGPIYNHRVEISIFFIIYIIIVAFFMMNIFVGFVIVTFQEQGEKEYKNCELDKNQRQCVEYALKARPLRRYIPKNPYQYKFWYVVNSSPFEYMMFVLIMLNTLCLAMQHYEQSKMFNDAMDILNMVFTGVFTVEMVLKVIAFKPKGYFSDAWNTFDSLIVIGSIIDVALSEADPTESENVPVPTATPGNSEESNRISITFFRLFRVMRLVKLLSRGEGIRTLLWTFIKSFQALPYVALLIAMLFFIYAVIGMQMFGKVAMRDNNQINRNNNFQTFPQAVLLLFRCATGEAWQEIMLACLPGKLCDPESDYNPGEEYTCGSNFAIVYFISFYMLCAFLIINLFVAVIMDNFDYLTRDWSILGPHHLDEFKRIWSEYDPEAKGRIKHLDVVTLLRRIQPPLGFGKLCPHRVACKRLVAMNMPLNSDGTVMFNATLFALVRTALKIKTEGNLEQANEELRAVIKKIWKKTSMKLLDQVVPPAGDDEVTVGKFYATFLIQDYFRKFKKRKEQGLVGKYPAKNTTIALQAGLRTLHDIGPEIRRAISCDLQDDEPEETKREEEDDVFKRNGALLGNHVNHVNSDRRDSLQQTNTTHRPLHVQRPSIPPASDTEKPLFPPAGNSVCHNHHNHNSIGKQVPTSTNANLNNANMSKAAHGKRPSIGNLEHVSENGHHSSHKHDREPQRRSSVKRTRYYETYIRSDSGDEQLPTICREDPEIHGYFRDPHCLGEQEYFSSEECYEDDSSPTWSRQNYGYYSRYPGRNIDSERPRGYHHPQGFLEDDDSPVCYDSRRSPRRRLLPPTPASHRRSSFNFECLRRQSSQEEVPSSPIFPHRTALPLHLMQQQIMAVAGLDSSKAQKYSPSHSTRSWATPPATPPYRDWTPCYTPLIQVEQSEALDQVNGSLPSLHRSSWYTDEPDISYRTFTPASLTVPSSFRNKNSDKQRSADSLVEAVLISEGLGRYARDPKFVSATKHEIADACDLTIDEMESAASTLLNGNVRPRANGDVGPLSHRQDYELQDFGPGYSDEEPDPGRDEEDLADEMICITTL
Sequence of Cav1.3 (P54284 whole entry partner): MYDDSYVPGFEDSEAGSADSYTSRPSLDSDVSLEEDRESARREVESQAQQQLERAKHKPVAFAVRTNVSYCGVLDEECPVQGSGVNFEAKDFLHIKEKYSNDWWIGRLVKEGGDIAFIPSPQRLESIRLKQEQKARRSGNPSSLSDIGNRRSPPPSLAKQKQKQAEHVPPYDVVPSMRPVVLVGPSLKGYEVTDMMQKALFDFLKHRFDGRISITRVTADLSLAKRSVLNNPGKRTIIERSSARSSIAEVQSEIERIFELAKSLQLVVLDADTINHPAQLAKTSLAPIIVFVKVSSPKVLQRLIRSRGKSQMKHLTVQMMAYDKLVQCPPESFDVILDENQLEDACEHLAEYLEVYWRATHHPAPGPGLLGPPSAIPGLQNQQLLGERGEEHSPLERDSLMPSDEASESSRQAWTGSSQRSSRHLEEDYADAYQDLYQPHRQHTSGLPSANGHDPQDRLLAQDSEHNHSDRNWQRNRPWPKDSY
Sequence of Cav1.3 (P54289 25-946 partner limits assumed): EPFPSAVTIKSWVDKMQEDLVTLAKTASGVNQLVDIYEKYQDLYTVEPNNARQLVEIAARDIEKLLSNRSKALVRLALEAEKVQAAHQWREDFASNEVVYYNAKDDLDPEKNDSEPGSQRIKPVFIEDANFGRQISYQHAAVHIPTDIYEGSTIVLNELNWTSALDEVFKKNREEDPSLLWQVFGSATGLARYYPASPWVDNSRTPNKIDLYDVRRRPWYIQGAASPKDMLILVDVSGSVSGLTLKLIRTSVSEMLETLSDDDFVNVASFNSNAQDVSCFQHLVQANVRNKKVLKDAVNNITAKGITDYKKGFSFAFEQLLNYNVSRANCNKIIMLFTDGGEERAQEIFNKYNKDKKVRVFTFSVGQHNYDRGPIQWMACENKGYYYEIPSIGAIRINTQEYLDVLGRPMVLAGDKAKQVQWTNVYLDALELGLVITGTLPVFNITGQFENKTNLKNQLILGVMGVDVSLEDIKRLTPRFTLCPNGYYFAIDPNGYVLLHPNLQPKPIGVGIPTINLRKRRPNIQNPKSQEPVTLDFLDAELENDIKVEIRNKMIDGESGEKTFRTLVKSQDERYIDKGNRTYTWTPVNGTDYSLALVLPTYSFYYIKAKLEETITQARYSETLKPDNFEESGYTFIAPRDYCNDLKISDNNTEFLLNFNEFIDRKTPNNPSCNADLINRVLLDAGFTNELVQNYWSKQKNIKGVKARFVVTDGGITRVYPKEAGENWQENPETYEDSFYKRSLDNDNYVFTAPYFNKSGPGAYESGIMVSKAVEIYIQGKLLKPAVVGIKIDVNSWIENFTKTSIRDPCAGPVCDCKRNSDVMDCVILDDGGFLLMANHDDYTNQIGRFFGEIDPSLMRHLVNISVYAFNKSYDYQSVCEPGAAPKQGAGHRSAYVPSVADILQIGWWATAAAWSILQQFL
Sequence of Cav1.3 (P54289 947-1103 partner limits assumed): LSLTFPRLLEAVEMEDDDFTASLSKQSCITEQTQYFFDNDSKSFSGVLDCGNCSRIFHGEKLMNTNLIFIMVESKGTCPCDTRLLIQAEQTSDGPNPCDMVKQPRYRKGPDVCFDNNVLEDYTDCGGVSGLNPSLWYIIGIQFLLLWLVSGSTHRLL

[3] = Middle CL/F, Middle AUC24 tertile

COC(=O)C1=C(C)NC(C)=C(C(=O)OC(C)C)C1c1cccc2nonc12 (centres unmarked) [isradipine]
HR for time to need therapy (Parkinson's disease; highest AUC24 exposure group vs placebo, 95% CI 0.45-0.97): 0.66
decrease in risk of needing antiparkinson treatment (Parkinson's disease; trend per CL/F tertile decrement or AUC24 tertile increment, vs placebo, p for trend=0.02): 13%
HR for time to first initiation of antiparkinson therapy (Parkinson's disease; trend per tertile, vs placebo, 95% CI:0.78-0.98): 0.87
plasma concentration required to inhibit neuronal death by 50% (IC50) ([1]; systemic administration, plasma concentration): 5 to 7 ng/mL
protection of dopaminergic neurons in the striatum and substantia nigra ([1]; systemic administration): concentration-dependent protection
threshold plasma concentration for protection against neuronal death ([1]; inflection point in the concentration-response curve): 1.5 to 2 ng/mL
high basal rate of mitophagy (SNc DA neurons; SNc DA neurons): diminished
mitochondrial oxidant stress (SNc DA neurons; SNc DA neurons): significantly lowered
cytosolic [Ca2+] in SNc DA neurons (SNc DA neurons): sustained reduction
mitochondrial mass in SNc DA neurons (SNc DA neurons): increased
Cmin,ss ([2]; Fast CL/F, Low AUC24 tertile): 0.56 ng/mL
CL/F ([2]; Fast CL/F, Low AUC24 tertile): 477 L/h
Cave,ss ([2]; Fast CL/F, Low AUC24 tertile): 0.9 ng/mL
Cmin,ss [2, 3]: 0.86 ng/mL
CL/F [2, 3]: 296 L/h
Cave,ss [2, 3]: 1.4 ng/mL
Cmin,ss ([2]; Slow CL/F, High AUC24 tertile): 1.40 ng/mL
CL/F ([2]; Slow CL/F, High AUC24 tertile): 195 L/h
Cave,ss ([2]; Slow CL/F, High AUC24 tertile): 2.1 ng/mL
IC50 (Cav1.3): ~8.08 nM
